Columns and labels:
[1] = biological target: T1, Vascular endothelial growth factor receptor 2 (Homo sapiens, UniProt P35968); assay: Inhibition of human VEGFR2 in presence of 1 mM ATP
[2] = biological target: T2, Epidermal growth factor receptor (Homo sapiens, UniProt P00533); assay: Inhibition of human EGFR in presence of 1 mM ATP
[3] = biological target: T2, Epidermal growth factor receptor; assay: Inhibition of human EGFR in presence of 1 uM ATP
[4] = biological target: T1, Vascular endothelial growth factor receptor 2; assay: Inhibition of human VEGFR2 in presence of 1 uM ATP

T2 sequence (P00533 whole entry): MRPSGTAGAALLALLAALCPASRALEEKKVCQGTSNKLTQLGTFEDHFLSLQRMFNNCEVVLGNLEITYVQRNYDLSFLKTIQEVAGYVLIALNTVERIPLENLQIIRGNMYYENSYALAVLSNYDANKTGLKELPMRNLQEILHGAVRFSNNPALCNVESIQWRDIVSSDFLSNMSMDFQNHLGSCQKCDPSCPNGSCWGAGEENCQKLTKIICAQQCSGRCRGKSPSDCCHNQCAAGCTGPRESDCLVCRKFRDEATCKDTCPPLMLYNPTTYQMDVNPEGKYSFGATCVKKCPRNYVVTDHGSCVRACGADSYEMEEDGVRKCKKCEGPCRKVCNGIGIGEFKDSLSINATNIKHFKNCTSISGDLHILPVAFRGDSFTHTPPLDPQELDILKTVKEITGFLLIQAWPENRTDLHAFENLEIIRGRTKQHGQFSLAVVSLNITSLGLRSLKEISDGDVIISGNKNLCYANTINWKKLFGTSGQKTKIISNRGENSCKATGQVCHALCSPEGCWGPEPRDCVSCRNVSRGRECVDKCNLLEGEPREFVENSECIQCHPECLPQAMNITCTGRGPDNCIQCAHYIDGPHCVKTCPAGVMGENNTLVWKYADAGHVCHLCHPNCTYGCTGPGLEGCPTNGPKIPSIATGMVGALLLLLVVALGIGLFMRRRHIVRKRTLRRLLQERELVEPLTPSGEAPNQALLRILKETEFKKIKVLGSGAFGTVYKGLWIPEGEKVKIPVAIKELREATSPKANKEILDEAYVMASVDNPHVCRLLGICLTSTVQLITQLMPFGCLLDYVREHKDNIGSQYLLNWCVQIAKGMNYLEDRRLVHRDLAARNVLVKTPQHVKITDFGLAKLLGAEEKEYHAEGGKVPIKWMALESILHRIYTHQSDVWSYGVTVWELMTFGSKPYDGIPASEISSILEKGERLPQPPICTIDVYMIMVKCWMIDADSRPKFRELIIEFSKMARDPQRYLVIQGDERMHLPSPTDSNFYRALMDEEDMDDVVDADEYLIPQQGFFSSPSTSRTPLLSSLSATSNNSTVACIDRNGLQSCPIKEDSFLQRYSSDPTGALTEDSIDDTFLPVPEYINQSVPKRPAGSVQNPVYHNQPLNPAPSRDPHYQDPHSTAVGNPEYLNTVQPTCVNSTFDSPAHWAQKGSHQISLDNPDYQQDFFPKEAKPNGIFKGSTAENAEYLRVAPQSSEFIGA
T1 sequence (P35968 whole entry): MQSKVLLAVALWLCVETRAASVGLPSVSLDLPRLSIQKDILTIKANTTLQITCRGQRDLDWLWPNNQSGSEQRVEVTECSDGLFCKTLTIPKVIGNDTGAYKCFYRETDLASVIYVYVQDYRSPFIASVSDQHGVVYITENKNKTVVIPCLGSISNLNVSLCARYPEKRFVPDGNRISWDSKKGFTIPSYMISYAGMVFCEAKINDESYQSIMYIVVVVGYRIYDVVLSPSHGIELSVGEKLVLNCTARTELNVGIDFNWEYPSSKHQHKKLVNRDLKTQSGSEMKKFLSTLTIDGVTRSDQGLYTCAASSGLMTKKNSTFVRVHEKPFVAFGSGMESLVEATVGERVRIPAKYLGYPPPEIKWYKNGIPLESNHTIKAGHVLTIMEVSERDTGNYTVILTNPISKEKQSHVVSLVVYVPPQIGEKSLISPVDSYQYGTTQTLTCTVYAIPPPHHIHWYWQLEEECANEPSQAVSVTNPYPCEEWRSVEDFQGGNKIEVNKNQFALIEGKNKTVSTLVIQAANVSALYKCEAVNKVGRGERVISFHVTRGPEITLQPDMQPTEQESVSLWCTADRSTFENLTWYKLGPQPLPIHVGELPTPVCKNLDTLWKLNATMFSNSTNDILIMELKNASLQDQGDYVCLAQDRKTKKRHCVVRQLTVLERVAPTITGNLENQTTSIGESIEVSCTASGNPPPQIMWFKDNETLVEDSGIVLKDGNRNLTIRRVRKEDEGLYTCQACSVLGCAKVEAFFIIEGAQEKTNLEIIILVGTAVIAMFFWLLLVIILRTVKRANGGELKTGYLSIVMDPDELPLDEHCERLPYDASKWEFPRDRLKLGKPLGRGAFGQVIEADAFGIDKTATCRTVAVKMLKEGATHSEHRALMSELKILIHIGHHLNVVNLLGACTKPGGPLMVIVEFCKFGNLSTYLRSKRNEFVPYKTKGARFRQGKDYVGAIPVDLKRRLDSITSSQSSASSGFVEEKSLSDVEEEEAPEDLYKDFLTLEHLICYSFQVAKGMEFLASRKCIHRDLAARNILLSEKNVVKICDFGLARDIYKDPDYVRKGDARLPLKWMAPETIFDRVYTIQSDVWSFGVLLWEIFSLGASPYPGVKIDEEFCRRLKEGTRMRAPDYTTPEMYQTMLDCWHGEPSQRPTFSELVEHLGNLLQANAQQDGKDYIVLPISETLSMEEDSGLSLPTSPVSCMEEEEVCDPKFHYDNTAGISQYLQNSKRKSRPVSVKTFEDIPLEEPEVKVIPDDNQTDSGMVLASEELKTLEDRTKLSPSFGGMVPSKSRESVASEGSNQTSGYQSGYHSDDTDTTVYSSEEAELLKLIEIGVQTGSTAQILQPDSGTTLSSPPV

Row | IC50 [1] [nM] | IC50 [2] [nM] | IC50 [3] [nM] | IC50 [4] [nM] | SMILES
1 | 1280 | 347 | 107 | 372 | CCOc1cc2ncnc(NC3=CC(=O)C(OCc4cccc(OC)c4)=CC3=O)c2cc1NC(=O)/C=C/CN(C)C
2 | 613 | 173 | 24.9 | 189 | CCOc1cc2ncnc(NC3=CC(=O)C(OCc4cccc(C)c4)=CC3=O)c2cc1NC(=O)/C=C/CN(C)C
3 |  | 704 | < 10 |  | CN(C)C/C=C/C(=O)Nc1ccc2ncnc(Nc3ccc(Br)cc3F)c2c1
4 | 250 | > 10000 | 7710 | 50.2 | COCCOc1cc2ncnc(NC3=CC(=O)C(OCc4cccc(OC)c4)=CC3=O)c2cc1OC
5 | 140 | > 10000 | > 10000 | 53.7 | COCCOc1cc2ncnc(NC3=CC(=O)C(OCc4ccccc4)=CC3=O)c2cc1OC
6 | 303 | 2090 | 283 | 109 | CCOc1cc2ncnc(NC3=CC(=O)C(OC(CF)CF)=CC3=O)c2cc1NC(=O)/C=C/CN(C)C
7 | 550 | 894 | 167 | 112 | CCOc1cc2ncnc(NC3=CC(=O)C(OCc4ccc(F)c(F)c4)=CC3=O)c2cc1NC(=O)/C=C/CN(C)C
8 | 783 | 216 | 18.7 | 102 | CCOc1cc2ncnc(NC3=CC(=O)C(OCc4ccccc4)=CC3=O)c2cc1NC(=O)/C=C/CN(C)C
9 | 179 | 35.6 | 12.2 | 80.2 | CCOc1cc2ncnc(NC3=CC(=O)C(OCc4cccc(Cl)c4)=CC3=O)c2cc1NC(=O)/C=C/CN(C)C
10 | 298 | 295 | 47.5 | 76.2 | CCOc1cc2ncnc(NC3=CC(=O)C(OCc4cccs4)=CC3=O)c2cc1NC(=O)/C=C/CN(C)C
11 | > 10000 |  |  | 1490 | COc1cc2ncnc(Nc3cccc(Br)c3)c2cc1OC
12 | 188 | > 10000 | > 10000 | 46.1 | COCCOc1cc2ncnc(NC3=CC(=O)C(OCc4cccc(F)c4)=CC3=O)c2cc1OC
13 | 1010 | 792 | 90.8 | 135 | CCOc1cc2ncnc(NC3=CC(=O)C(OCc4ccccn4)=CC3=O)c2cc1NC(=O)/C=C/CN(C)C
14 | 1400 | > 10000 | 799 | 379 | CCOc1cc2ncnc(NC3=CC(=O)C(OC)=CC3=O)c2cc1NC(=O)/C=C/CN(C)C
15 | 348 | 43.1 | 4.1 | 113 | CCOc1cc2ncnc(NC3=CC(=O)C(OCc4cccc(F)c4)=CC3=O)c2cc1NC(=O)/C=C/CN(C)C
16 | > 10000 |  |  | 858 | CCOc1cc2ncc(C#N)c(Nc3ccc(OCc4ccccn4)c(Cl)c3)c2cc1NC(=O)/C=C/CN(C)C [NERATINIB]
17 | > 10000 |  |  | 3130 | CCOc1cc2ncc(C#N)c(Nc3ccc(F)c(Cl)c3)c2cc1NC(=O)/C=C/CN(C)C [PELITINIB]
